According to ChEMBL document CHEMBL1240297 (Cancer Res, 2005):
pIC50: −log10 of the molar value. Activity calls are given as the source filed them. No cut-off for these calls is given here. Where a SMILES comes first, the peptide text is derived from it. The star is where a group is joined. Cbz = O=C(OCc1ccccc1)*

Key:
[1] = test system: LP-1; assay: Induction of apoptosis in human LP-1 cells assessed as reduction of Mcl-1 protein level at 300 nM after 16 hrs by immunoblotting; type: functional, cell-based
[2] = test system: LP-1; assay: Induction of apoptosis in human LP-1 cells assessed as increase in level of cleaved PARP at 300 nM after 16 hrs by immunoblotting; type: functional, cell-based
[3] = Selectivity ratio of IC50 for CDK9/cyclin T to IC50 for CDK2/cyclin E
[4] = test system: NCI-H929; assay: Induction of apoptosis in human NCI-H929 cells assessed as changes in Bcl-2 protein level at 60 uM after 3 hrs by immunoblotting; type: functional, cell-based
[5] = test system: NCI-H929; assay: Induction of apoptosis in human NCI-H929 cells assessed as reduction of total RNA polymerase 2 level at 60 uM after 1.5 hrs by immunoblotting; type: functional, cell-based
[6] = test system: NCI-H929; assay: Induction of apoptosis in human NCI-H929 cells assessed as reduction of Mcl-1 protein level at 60 uM after 3 hrs by immunoblotting; type: functional, cell-based
[7] = test system: NCI-H929; assay: Induction of apoptosis in human NCI-H929 cells assessed as changes in XIAP protein level at 60 uM after 3 hrs by immunoblotting; type: functional, cell-based
[8] = test system: NCI-H929; assay: Induction of apoptosis in human NCI-H929 cells assessed as reduction of Hdm2 level at 60 uM after 1.5 hrs by immunoblotting; type: functional, cell-based
[9] = test system: NCI-H929; assay: Induction of apoptosis in human NCI-H929 cells assessed as reduction of RNA polymerase 2 phosphoserine 2 level at 60 uM after 1.5 hrs by immunoblotting; type: functional, cell-based
[10] = test system: NCI-H929; assay: Induction of apoptosis in human NCI-H929 cells assessed as increase of p53 accumulation at 60 uM after 1.5 hrs by immunoblotting; type: functional, cell-based
[11] = test system: NCI-H929; assay: Induction of apoptosis in human NCI-H929 cells assessed as dephosphorylation of pRb at S249/T252 at 60 uM after 8 hrs by immunoblotting; type: functional, cell-based
[12] = test system: NCI-H929; assay: Induction of apoptosis in human NCI-H929 cells assessed as dephosphorylation of pRb at S249/T252 at 60 uM after 1.5 hrs by immunoblotting; type: functional, cell-based
[13] = test system: OPM-2; assay: Cytotoxicity against human OPM2 cells after 72 hrs by alamar blue assay; type: functional, cell-based; settings: OPM-2, 72 h
[14] = test system: U-266; assay: Cytotoxicity against human U266 cells after 72 hrs by alamar blue assay; type: functional, cell-based; settings: U-266, 72 h
[15] = test system: NCI-H929; assay: Induction of apoptosis in human NCI-H929 cells assessed as […] slow migrating hyperphosphorylated RNA polymerase 2O form at 60 uM after 1.5 hrs by immunoblotting; type: functional, cell-based
[16] = test system: LP-1; assay: Cytotoxicity against human LP-1 cells after 72 hrs by alamar blue assay; type: functional, cell-based; settings: LP-1, 72 h
[17] = test system: NCI-H929; assay: Induction of apoptosis in human NCI-H929 cells assessed as increase in level of cleaved PARP at 60 uM after 5 hrs by immunoblotting; type: functional, cell-based
[18] = test system: NCI-H929; assay: Induction of apoptosis in human NCI-H929 cells assessed as changes in survivin protein level at 60 uM after 3 hrs by immunoblotting; type: functional, cell-based
[19] = Selectivity ratio of IC50 for CDK9/cyclin T to IC50 for CDK7/cyclin H
[20] = test system: NCI-H929; assay: Induction of apoptosis in human NCI-H929 cells assessed as reduction of RNA polymerase 2 phosphoserine 5 level at 60 uM after 1.5 hrs by immunoblotting; type: functional, cell-based
[21] = Cytotoxicity against human RPM18226 cells after 72 hrs by alamar blue assay; type: functional, cell-based; settings: RPMI-8226, 72 h
[22] = Cytotoxicity against human NCI-H929 cells after 72 hrs by alamar blue assay; type: functional, cell-based; settings: NCI-H929, 72 h
[23] = test system: NCI-H929; assay: Induction of apoptosis in human NCI-H929 cells assessed as fast migrating hypophosphorylated RNA polymerase 2A form at 60 uM after 1.5 hrs by immunoblotting; type: functional, cell-based
[24] = test system: NCI-H929; assay: Induction of apoptosis in human NCI-H929 cells assessed as reduction of Hdm2 level at 30 uM after 1.5 hrs by immunoblotting; type: functional, cell-based
[25] = test system: NCI-H929; assay: Induction of apoptosis in human NCI-H929 cells at 30 uM after 3 hrs using TUNEL staining by flow cytometry; type: functional, cell-based
[26] = test system: NCI-H929; assay: Induction of apoptosis in human NCI-H929 cells assessed as fast migrating hypophosphorylated RNA polymerase 2A form at 30 uM after 1.5 hrs by immunoblotting; type: functional, cell-based
[27] = test system: NCI-H929; assay: Induction of apoptosis in human NCI-H929 cells assessed as reduction of RNA polymerase 2 phosphoserine 5 level at 30 uM after 1.5 hrs by immunoblotting; type: functional, cell-based
[28] = test system: NCI-H929; assay: Induction of apoptosis in human NCI-H929 cells assessed as reduction of Mcl-1 protein level at 30 uM after 3 hrs by immunoblotting; type: functional, cell-based
[29] = test system: LP-1; assay: Cytotoxicity against human LP-1 cells assessed as reduction of cell viability at 20 to 30 uM treated for 24 hrs followed by washout measured after total 72 hrs growth period alamar blue assay relative to control; type: functional, cell-based
[30] = test system: LP-1; assay: Induction of apoptosis in human LP-1 cells assessed as reduction of RNA polymerase 2 phosphoserine 2 level at 30 uM after 1.5 hrs by immunoblotting; type: functional, cell-based
[31] = test system: NCI-H929; assay: Induction of apoptosis in human NCI-H929 cells assessed as changes in XIAP protein level at 30 uM after 3 hrs by immunoblotting; type: functional, cell-based
[32] = test system: NCI-H929; assay: Cytotoxicity against human NCI-H929 cells assessed as reduction of cell viability at 20 to 30 uM treated for 16 hrs followed by washout measured after total 72 hrs growth period alamar blue assay relative to control; type: functional, cell-based
[33] = test system: NCI-H929; assay: Induction of apoptosis in human NCI-H929 cells assessed as […] slow migrating hyperphosphorylated RNA polymerase 2O form at 30 uM after 1.5 hrs by immunoblotting; type: functional, cell-based
[34] = test system: RPMI-8226; assay: Induction of apoptosis in human RPM18226 cells at 30 uM after 3 hrs using TUNEL staining by flow cytometry; type: functional, cell-based
[35] = Inhibition of CDK9/cyclin T
[36] = test system: LP-1; assay: Induction of apoptosis in human LP-1 cells assessed as reduction of Mcl-1 protein level at 30 uM after 3 hrs by immunoblotting; type: functional, cell-based
[37] = test system: NCI-H929; assay: Induction of apoptosis in human NCI-H929 cells assessed as changes in survivin protein level at 30 uM after 3 hrs by immunoblotting; type: functional, cell-based
[38] = test system: NCI-H929; assay: Induction of apoptosis in human NCI-H929 cells assessed as reduction of total RNA polymerase 2 level at 30 uM after 1.5 hrs by immunoblotting; type: functional, cell-based
[39] = test system: RPMI-8226; assay: Induction of apoptosis in human RPM18226 cells assessed as reduction of Mcl-1 protein level at 30 uM after 3 hrs by immunoblotting; type: functional, cell-based
[40] = test system: LP-1; assay: Cytotoxicity against human LP-1 cells assessed as reduction of cell viability at 20 to 30 uM treated for 8 hrs followed by washout measured after total 72 hrs growth period alamar blue assay relative to control; type: functional
[41] = test system: LP-1; assay: Induction of apoptosis in human LP-1 cells at 30 uM after 3 hrs using TUNEL staining by flow cytometry; type: functional, cell-based
[42] = test system: NCI-H929; assay: Induction of apoptosis in human NCI-H929 cells assessed as reduction of RNA polymerase 2 phosphoserine 2 level at 30 uM after 1.5 hrs by immunoblotting; type: functional, cell-based
[43] = test system: NCI-H929; assay: Induction of apoptosis in human NCI-H929 cells assessed as increase of p53 accumulation at 30 uM after 1.5 hrs by immunoblotting; type: functional, cell-based
[44] = test system: NCI-H929; assay: Induction of apoptosis in human NCI-H929 cells assessed as changes in Bcl-2 protein level at 30 uM after 3 hrs by immunoblotting; type: functional, cell-based
[45] = test system: RPMI-8226; assay: Induction of apoptosis in human RPM18226 cells at 30 uM after 24 hrs using TUNEL staining by flow cytometry; type: functional
[46] = test system: LP-1; assay: Induction of apoptosis in human LP-1 cells at 30 uM after 24 hrs using TUNEL staining by flow cytometry; type: functional
[47] = test system: NCI-H929; assay: Induction of apoptosis in human NCI-H929 cells assessed as effect on total pRb level at 30 uM after 1.5 hrs by immunoblotting; type: functional, cell-based
[48] = test system: NCI-H929; assay: Induction of apoptosis in human NCI-H929 cells assessed as dephosphorylation of pRb at S249/T252 at 30 uM after 1.5 hrs by immunoblotting; type: functional, cell-based
[49] = test system: RPMI-8226; assay: Induction of apoptosis in human RPM18226 cells assessed as reduction of RNA polymerase 2 phosphoserine 2 level at 30 uM after 1.5 hrs by immunoblotting; type: functional, cell-based
[50] = test system: NCI-H929; assay: Induction of apoptosis in human NCI-H929 cells at 30 uM after 24 hrs using TUNEL staining by flow cytometry; type: functional

CC(C)C[C@@H](C=O)NC(=O)[C@H](CC(C)C)NC(=O)[C@H](CC(C)C)NC(=O)OCc1ccccc1 (Cbz-Leu-Leu-Leu-aldehyde)
Activity [1]: inactive
Activity [2]: Active

OC[C@H]1O[C@@H](n2cnc3cc(Cl)c(Cl)cc32)[C@H](O)[C@@H]1O [DICHLORORIBOBENZIMIDAZOLE]
Ratio IC50 [3]: 25
Activity [4]: Active
Activity [5]: inactive
Activity [6]: Active
Activity [7]: Active
Activity [8]: Active
Activity [9]: Active
Activity [10]: Active
Activity [11]: Active
Activity [12]: inactive
pIC50 [13]: 4.53
pIC50 [14]: 4.39
Activity [15]: Active
pIC50 [16]: 4.53
Activity [17]: Active
Activity [18]: Active
Ratio IC50 [19]: 25
Activity [20]: Active
pIC50 [21]: 4.33
pIC50 [22]: 4.70
Activity [23]: Active

CC[C@H](CO)Nc1nc(NCc2ccccc2)c2ncn(C(C)C)c2n1 [SELICICLIB]
Activity [24]: Active
Activity [25]: Active
Activity [26]: inactive
Activity [27]: Active
Activity [28]: Active
Activity [29]: Active
Activity [30]: Active
Activity [31]: Active
Activity [32]: Active
Activity [33]: Active
Activity [34]: Active
pIC50 [13]: 4.73
pIC50 [35]: 6.09
Activity [36]: Active
Activity [37]: Active
Activity [38]: inactive
Activity [39]: Active
pIC50 [14]: 4.75
Activity [40]: 50%
pIC50 [16]: 4.90
Activity [41]: Active
Activity [42]: Active
Activity [43]: Active
Activity [44]: Active
Activity [45]: >=60%
pIC50 [21]: 4.71
Activity [46]: >=60%
Activity [47]: inactive
Activity [48]: Active
Activity [49]: Active
Activity [50]: >=60%
